Measurements taken from US20120270812A1, “COMPOSITIONS, METHODS, AND KITS FOR DETERMINING AN ALKYL TRANSFERASE” (Duke University, priority 2009, published 2012).
Where two headings read alike, the source gives them in different places.

How the values were obtained:
human AGT = target: T1, human AGT (Homo sapiens, UniProt P16455); assay: Depletion (inactivation) of cellular AGT activity in CHO cells transfected with pCMV-AGT; type: cell-based
T1 construct: expressed in transfected cells; host or cells: CHO-K1 cells, geneticin-selected clones, plasmid pCMV-AGT
T1 sequence (P16455 1-207): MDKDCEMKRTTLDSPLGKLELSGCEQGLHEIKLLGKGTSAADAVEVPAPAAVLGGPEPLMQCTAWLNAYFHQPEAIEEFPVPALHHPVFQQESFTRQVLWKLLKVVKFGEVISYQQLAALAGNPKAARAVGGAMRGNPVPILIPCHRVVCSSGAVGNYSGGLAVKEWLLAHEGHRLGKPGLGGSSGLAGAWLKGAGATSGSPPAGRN
Experimental: FIG. 8 is a graph showing depletion of cellular AGT activity by unlabeled 6-(4-fluoro-benzyloxy)-9H-purin-2-ylamine (O^6-4-fluorobenzylguanine (FBG)) and 6-(iodo-benzyloxy)-9H-purin-2-ylamine (O^6-iodobenzylguanine (IBG)). CHO cells transfected with pCMV-AGT were incubated with varying concentrations of IBG (▪) or FBG ([…]) for 4 hours, and the AGT activity associated with the cells was determined. The results are expressed as the percentage of the AGT activity present in cell cultures that were not treated with FBG or IBG.
CHO-K1 cells were maintained in αMEM (Gibco, Grand Island, N.Y.) containing 10% fetal bovine serum. […]
Inactivation of cellular AGT was measured by adding varying concentrations of FBG or IBG to cell cultures that had reached 80-90% confluence. […] AGT activity was measured by assaying the loss of [^3H]—O^6-methylguanine from a [^3H] methylated calf thymus DNA substrate as described by, e.g., Dolan et al., PNAS, 87:5368-5372 (1990). The results are expressed as the percentage of the AGT activity present in cell cultures that were not treated with FBG or IBG. […]
Because IBG is a new compound, its ability to deplete AGT was determined using CHO cells transfected with pCMV-AGT to express AGT. In parallel, the ability of FBG to deplete AGT under the same conditions also was measured. […]

[1] = target: T2, Purified human AGT with a (His)6 tag (Homo sapiens, UniProt P16455); assay: In vitro binding of radiolabeled FBG or IBG to purified AGT (TCA precipitation); settings: for maximum observed AGT to BSA binding ratio: 10 μg AGT vs 10 μg BSA (nonspecific protein); for unlabeled compound concentration above which saturation was observed: binding to purified AGT
T2 construct: (His)6
T2 sequence (P16455 1-207): T1 sequence (P16455 1-207)
Experimental: FIG. 9 is a graph showing binding of [^18F] FBG to purified AGT as a function of unlabeled FBG concentration. […] FBG was incubated for 30 minutes at 37° C., in the presence or absence of increasing amounts of unlabeled FBG, with 10 μg of AGT ([…]), or to control for nonspecific binding, 10 μg of BSA (▴) in a Tris-buffer. The protein-associated activity was determined by TCA precipitation.
IBG to purified AGT as a function of unlabeled IBG concentration. […] IBG with AGT ([…]) or BSA (▴).
Purified human AGT with a (His)6 tag was generously provided by Dr. Anthony E. Pegg of Hershey Medical Center, Pennsylvania State University. […] The incubation carried out in 0.1 ml 50 mM Tris-Cl, pH 7.5, 5 mM DTT, 0.1 mM EDTA in the presence of 10 μg calf thymus DNA. […] The precipitated proteins were collected on GF-C (Whatman) filters, which were washed extensively with 5% TCA. The results are expressed as the percentage of input activity retained on the filter. For each concentration, the assay was performed in triplicate.
To investigate whether AGT recognizes radiolabeled FBG and IBG as substrates, the efficacy of transfer of their radiolabeled benzyl groups to AGT was determined using the purified protein. […] The preparation of ^13C-and ^14C-labeled O^6-benzylguanosines has been reported by, e.g., Madelmont et al., J. Lab. Comp.

[2] = Stability during reversed-phase chromatography with 0.1% TFA in water; type: physicochemical; settings: 0.1% TFA in water (pH 2) as a co-solvent
Description: A combination of radio-TLC, and normal-phase and reversed-phase HPLC was used to verify that the final product was indeed IBG and not the 3-iodobenzyl alcohol. Very little if any of 3-iodobenzyl alcohol was detected in the reaction mixture. In addition, the final product bound to AGT specifically (vide infra), which further supports its authenticity. […] This may be due to the lack of water in the reaction mixture or a rate factor may be involved. Both IBG and FBG were stable during reversed-phase chromatography involving 0.1% TFA in water (pH 2) as a co-solvent.

| stability during reversed-phase chromatography [2] | maximum observed AGT to BSA binding ratio [1] | unlabeled compound concentration above which saturation was observed [1] | Structure (SMILES) | also measured |
| --- | --- | --- | --- | --- |
| stable | – | – | Nc1nc(OCc2ccc(F)cc2)c2nc[nH]c2n1 [FBG, 6-(4-fluoro-benzyloxy)-9H-purin-2-ylamine, reference compound] | IC50 (human AGT; CHO cells transfected with pCMV-AGT, 4 hours of drug treatment, read-out: IC50 for depleting AGT): 0.05 µM; IC50 ([1]; 10 μg AGT, 30 minutes at 37° C., read-out: IC50 (binding to purified AGT as a function of unlabeled compound concentration)): 5 µM |
| stable | – | – | Nc1nc(OCc2cccc(I)c2)c2[nH]cnc2n1 [IBG, 6-(3-Iodo-benzyloxy)-9H-purin-2-ylamine] | IC50 (human AGT): 0.015 µM; IC50 [1]: ~6 µM |
| – | 661 | higher than 2 μM | Nc1nc(OCc2ccc([18F])cc2)c2nc[nH]c2n1 [[^18F]FBG, 6-(4-[^18F]Fluoro-benzyloxy)-9H-purin-2-ylamine] | percent of input activity that bound to AGT, maximum ([1]; at 0.5 μM of unlabeled FBG, 10 μg AGT, 30 minutes at 37° C.): about 90% |
| – | 35 | higher than 3 μM | Nc1nc(OCc2cccc([131I])c2)c2nc[nH]c2n1 [[^131I]IBG, 6-(3-[^131I]Iodo-benzyloxy)-9H-purin-2-ylamine] | percent of radiolabeled compound bound to AGT ([1]; over a wide range of unlabeled IBG concentrations, 10 μg AGT, 30 minutes at 37° C.): About 60% |
